Earlier results on 4 molecules are cited in US6395294B1, “Method of visualization of the vitreous during vitrectomy” (priority 2000, dated 2002).

SMILES strings stand for the structures. Like-named read-outs stand apart in the source and are kept apart here.

The conditions of data set [1]: intravenous.
The conditions of data set [2]: intravitreal injections.
The subject of another data set is blood retinal barrier. Conditions: intravitreal, experimental.
The conditions of data set [3]: primate eyes.
The conditions of data set [4]: human eyes.
For data set [5] the following is noted: intravitreal, experimental.
For data set [6] the following is noted: rabbit eyes.

As for `C[C@H]1C[C@@H]2[C@H]([C@@H](O)C[C@@]3(C)[C@H]2CC[C@]3(O)C(=O)COC(=O)CCC(=O)[O-])[C@@]2(C)C=CC(=O)C=C12.[Na+]` [solumedrol, methylprednisolone sodium succinate], the “effect on diabetic eyes with rubeosis iridis” value in data set [1] is recorded as “quiets diabetic eyes with rubeosis iridis”.
`C[C@]12CCC(=O)C=C1CC[C@@H]1[C@@H]2[C@@H](O)C[C@@]2(C)[C@H]1CC[C@]2(O)C(=O)CO` [hydrocortisone]: the “aqueous formation rate and outflow facility compared with saline injection” value in data set [2] is listed as “no difference”. Moreover, the intraocular pressure result in data set [2] (both drug and saline groups, because of a decrease in outflow facility) is “increased intraocular pressure”.
`CC1(C)O[C@@H]2C[C@H]3[C@@H]4CCC5=CC(=O)C=C[C@]5(C)[C@@]4(F)[C@@H](O)C[C@]3(C)[C@]2(C(=O)CO)O1` [triamcinolone, triamcinolone acetonide]: the retinal toxicity result (vitrectomized and nonvitrectomized eyes, dosage of 2-4 mg) is “no retinal toxicity”. In addition, the “breakdown of the blood retinal barrier” value with blood retinal barrier is on record as “reduce the breakdown of the blood retinal barrier”. Besides, the “tolerance in the eye” value in data set [3] was “well tolerated”. Also, the “tolerance in the eye” value in data set [4] is given as “well tolerated”. Further, in data set [5], the angiogenesis result was “inhibit angiogenesis”; the “incidence of proliferative vitreoretinopathy and subsequent retinal detachment” value was “reduce the incidence of proliferative vitreoretinopathy and subsequent retinal detachment”; the “preretinal and optic disc neovascularization” value is “inhibit preretinal and optic disc neovascularization”. Also, in data set [6], the “tolerance in the eye” value is given as “well tolerated”.
With `C[C@@H]1C[C@H]2[C@@H]3CCC4=CC(=O)C=C[C@]4(C)[C@@]3(F)[C@@H](O)C[C@]2(C)[C@@]1(O)C(=O)COP(=O)(O)O` [dexamethasone sodium phosphate], the retinal toxicity entry (dose of 2 mg) was “did not show retinal toxicity”.
